Melting point data for 63 molecules are collected here from a melting point compilation (Tetko et al.; mined from patent text by program, amines drawn as free bases though some values may be those of a salt).

The term melting point denotes the temperature, or range, at which the solid turns liquid. Consider `O=[N+]([O-])c1cc(O)ccc1NCCO`, for which the melting point was found to be 142 °C. As to `COc1cc(C#N)cc2c1OC(C)(C)C2`, the melting point fell in the range of 73 to 74 °C.

The molecule `CC(C)CC(NC(=O)Cc1ccc(NC(=O)Nc2ccccn2)cc1)c1ncc(C(C)C(=O)O)s1` (stereo not drawn) came in with a melting point of 173 to 175 °C. The same measure for `CC(C)CCS(=O)(=O)NC(=O)/C=C/c1cc(OC2CCOCC2)nn1Cc1ccc(C(F)(F)F)cc1Cl`: 150 to 152 °C; for `CCOC(=O)c1c(SC)n(-c2ccc(F)cc2)c2cc(F)c(F)cc2c1=O`: 167 °C; for `COc1c(C)sc2nc(SCc3ccccc3)nn12`: 101 to 103 °C.

`CCOc1nc2cccc(C(=O)O)c2n1Cc1ccc(-c2ccccc2-c2nc(=O)o[nH]2)cc1` returned a melting point of 156 to 157 °C.

Take `CC(O)c1cc2c(s1)C(=O)c1sccc1C2=O` (stereo not drawn): the melting point was 170 to 172 °C. Next, `CC1(C)NCCc2c1oc1cc(S(=O)(=O)c3cccc(F)c3)ccc21`: 110 to 114 °C; `CCSc1sc(C(=O)N2CCCC2)c2c1-c1oncc1C(C)(C)C2`: 91 to 93 °C; `Cc1noc(CC(=O)Oc2ccc(Br)cc2)n1`: 73 to 74 °C. Next, `CC(=O)OCC(=O)C1=CCC2C3CCC4=CC(=O)CCC4(C)C3CCC12C` (stereo not drawn): 146 to 148 °C; `COc1ccc(C(=O)O)cc1NC(=O)[C@H](CCCNC(=N)N[N+](=O)[O-])NC(=O)OCc1ccccc1`: 208 to 209 °C; `CCCc1nc(NC(=N)N)sc1-c1cccc([N+](=O)[O-])c1`: 137 to 139 °C.

`c1ccc(-c2nc3ccccc3o2)nc1` displayed a melting point of 105 to 107 °C.

In the case of `CCCOc1nc(N)c2ncn(C3C=CCCC3)c2n1` (stereo not drawn), the melting point fell in the range of 157 to 159 °C.

Regarding `O=C1Nc2ccc(F)cc2C1c1ncnc2c1cnn2C1CCCC1` (stereo not drawn), the melting point lay within 254 to 257 °C. `O=S1(=O)NCN(C2CC2)c2cc(Br)cc(F)c21` yielded a melting point of 195 to 198 °C. Next, `Nc1ccc(OCC(=O)N2CC=C(c3ccc(F)cc3)CC2)cc1`: 120 to 122 °C.

Molecule `O=[N+]([O-])c1cccc(-c2nc(Nc3ccccc3)cc3cccnc23)c1` returned a melting point of 158 to 160 °C. Next, `O=C(Nc1nccs1)c1nc(-c2ccc([N+](=O)[O-])cc2)[nH]c1-c1ccc(CO)cc1`: 249 to 252 °C. The same measure for `CCCc1c(Cl)nc(NC=O)nc1Cl`: 92 to 94 °C; for `CCNc1cccc(NC(=O)COCC)c1C#N`: 84 to 87 °C. Next, `NC1=Nc2ccc(I)cc2C(c2ccccn2)=NC1`: 228 to 229 °C. On to `CC(C)C[N+]([O-])=Cc1ccccc1`, for which the melting point lay within 73 to 75 °C. The same measure for `CCN(CC)C(=O)n1cc(Cc2ccc(C(=O)NS(=O)(=O)c3ccccc3C)cc2OC)c2cc(C(=O)NCC(C)CC(F)(F)F)ccc21` (stereo not drawn): 153 to 154 °C. Next, `COC(C)c1cc(N2C(=O)C3=C(CCCC3)C2=O)c(F)cc1Cl` (stereo not drawn): 141 to 144 °C; `COc1cccc(Oc2cccnc2C(=O)NCCNC(=O)OC(C)(C)C)c1`: 81 to 82 °C. `O=C(O)CCNc1ccccc1CNC(=O)C1Cc2ccccc2N1S(=O)(=O)c1ccc(-c2cccc(C(F)(F)F)c2)cc1` (stereo not drawn): the melting point was determined as 94 °C. Next, `COC(=O)/C=C/n1cnc2c(C)cc(C)cc2c1=O`: 139 to 141 °C; `CCCCCCCCCCCCCCCCCCCCCC(=O)Nc1ccn(C2OC(CO)C(O)C2O)c(=O)n1` (stereo not drawn): 141 to 143 °C; `CCOC(=O)C(=O)Nc1cc(C(F)(F)F)c(Cl)cc1[N+](=O)[O-]`: 96.5 to 97.5 °C.

Consider `CCC1=CC(c2cccc([N+](=O)[O-])c2)C2=C(CCCC2=O)N1` (stereo not drawn), for which the melting point is 182 to 184 °C. As for `O=C1N(Cc2cnc(Cl)s2)c2ccccc2C12COc1cc3c(cc12)OCO3` (stereo not drawn), the melting point is 195 to 198 °C.

In turn, `CC(C)(NCCCn1cnc(CO)c1)c1ccc(-c2ccccc2)cc1` showed a melting point of 128 to 130 °C. The same measure for `COC12CC(CNC(=S)NC(C)=O)CN(C)C1Cc1c[nH]c3cccc2c13` (stereo not drawn): 212 to 214 °C. Next, `Cc1ccc2c(C(=O)NCCc3ccccc3)c(Cl)ccc2n1`: 170 to 172 °C. Next, `Brc1ccc(-c2ccnc(-c3ccccc3)n2)cc1`: 107 °C; `O=Cc1cc2c(cc1[N+](=O)[O-])OC(F)(F)O2`: 36 to 38 °C; `COC(=O)c1cc(C)cc(C=O)c1`: 71 to 73 °C. The molecule `O=C(c1ccc(F)cc1)N1CCC[C@H](c2nc(-c3ccc4ccccc4c3)no2)C1` returned a melting point of 142 to 143 °C. `O=C(O)c1ccccc1CCCCc1ccccc1` yielded a melting point of 82 to 84 °C. The same measure for `CC1(C)CC(OC(=O)c2ccccc2C(=O)OC2CC(C)(C)N(OC3CCCCC3)C(C)(C)C2)CC(C)(C)N1OC1CCCCC1`: 149 to 151 °C; for `CCC1N=C(c2ccccc2Cl)c2cc(CCC(=O)OC)sc2-n2c(C)nnc21` (stereo not drawn): 126 to 127 °C; for `CCCCC(=O)Nc1ccccc1C(N)=O`: 119 to 120 °C. Next, `CN(C)C(=O)c1nc2n(n1)-c1ccc(Cl)cc1C(c1ccccc1)=NC2`: 135 to 137 °C. The same measure for `CC(=O)c1cc(N2CCCC2)ccc1NC(=O)c1ccccc1OCc1ccccc1`: 160 to 161 °C; for `CC(=O)Nc1cc(N2CCCCC2)nc(=N)n1O`: 204 to 205 °C. Consider `Cc1nc2n(C)nc(C)n2c(=O)c1CCO`, for which the melting point is 170 °C. `Cc1cc(C(=O)O)nn1CC(=O)Nc1ccccc1` came in with a melting point of 273 to 275 °C. Next, `CCCCCCCCCC(=O)Nc1c2c(nc3ccccc13)CCCC2`: 123 to 126 °C.

Molecule `Cc1nn(C)c(C)c1S(=O)(=O)N1CCC2(CC1)CSC1=C(O2)c2ccccc2C(=O)C1=O` gave a melting point of 273 to 275 °C.

With `C=CCOC(=O)Nc1cc(C(C)(C)C)[nH]n1`, the melting point was in the range of 131 to 132 °C. The same measure for `CCCSc1nc(C)nc(S)c1[N+](=O)[O-]`: 162 to 164 °C; for `O=C(O)Cc1ccc(CN2CCN(c3ccccc3C(=O)O)CC2)cc1`: 179 to 181 °C. Take `O=c1c(-c2n[nH]c3ccccc23)coc2ccccc12`: the melting point was in the range of 159 to 160 °C.

Molecule `COc1cc2c(cc1Nc1ncc(Cl)c(N[C@H]3[C@@H](C(N)=O)[C@@H]4C=C[C@H]3C4)n1)NC(=O)CN(CC1CC1)C2` displayed a melting point of 152 °C. In turn, `COc1cc(O)c2c(=O)c(OC)c(-c3ccc(OC(=O)C(C)(C)C)c(OC)c3)oc2c1` returned a melting point of 163 to 164 °C.

In turn, `CCC(=O)O[C@H]1C[C@@H](C(=O)OC)[C@]2(C)CC[C@H]3C(=O)O[C@H](c4ccoc4)C[C@]3(C)[C@H]2C1=O` displayed a melting point of 217 to 221 °C. The same measure for `CN(c1ccc(Cl)c2cc(-c3ncc(CO)s3)[nH]c12)S(=O)(=O)c1cccs1`: 225 to 226 °C; for `COCCNC(=O)Cn1nc(-c2ccccc2O)nc1-c1ccccc1O`: 184 to 186 °C. Next, `CCCCCCCCCCCCCCCc1cc2cc(C(=O)OCCCC)ccc2[nH]1`: 79 to 80 °C; `O=C(O)CCC(=O)c1ccc(-c2ccc(Cl)c(Cl)c2)cc1`: 154 to 156 °C.
